According to patent US20230192700A1, “PYRAZOLOPYRAZINES ACTING ON CANCERS VIA INHIBITION OF CDK12” (Bayer Aktiengesellschaft, priority 2020, published 2023):

Key:
CDK12 = molecular target: T1, CDK12 (Homo sapiens, UniProt Q9NYV4); assay: CDK12 nuclear protein level: immunofluorescence/high content analysis in CAL-120 cells; assay type: cell-based
T1 construct: endogenous in cells; host or cells: CAL-120 human breast cancer cells (DSMZ ACC 459)
Protocol: 6. CDK12 Nuclear Protein Level: Immunofluorescence/High Content Analysis
In the context of the present invention, the term “DC50 CDK12” refers to the DC50 values obtained according to the assay described in this section (6) herein below, i.e. the DC50 values for the degradation of CDK12.:
(§1) CAL-120 human breast cancer cells (DSMZ ACC 459) are seeded in 1536-well microtiter plates (800 cells per well) containing 50 nanoL of compounds in Dose-Response. Control wells received DMSO or Reference Example 1. Plates are then incubated for 24 h at 37° C. in an humidified incubator and fixed with 4% PFA for 10 min. Then immunofluorescence (IF) against CDK12 (CellSignalling CDK12 Antibody #11973, rabbit, 1:100 dilution) is performed using standard IF protocols. Cells are then stained with Hoechst 33342 (Life Technologies, H-1399, 0.1 microg/mL) and imaged on an automated confocal microscopy system (e.g. Perkin Elmer Opera Phenix). Nuclear and cytoplasmic intensity as well as the nuclear/cytoplasmic intensity ratio is determined by automated image analysis using custom generated scripts (MetaXpress). Data is then transferred to Genedata Screener software, normalized to DMSO and control and DC50 values (degrading concentration to achieve 50% reduction of nuclear CDK12 staining intensity relative to controls) are reported.

CDK12/CyclinK = molecular target: T2, CDK12/CyclinK (Homo sapiens, UniProt Q9NYV4); assay: CDK12/CycK high ATP kinase assay (TR-FRET); assay type: biochemical; conditions: 2 mM ATP (high ATP); median; read-out: CDK12/CyclinK, 2 mM ATP (high ATP), IC50 - [mol/l] (median)
T2 construct: His-CDK12 (aa Q696-S1082); made in house; host or cells: Hi-5 insect cells (baculovirus co-infection with CycK and yeast CAK1)
Excerpt: 2.2 CDK12/CycK high ATP Kinase Assay
In the context of the present invention, the term “IC50 CDK12 hATP” refers to the ICso values obtained according to the assay described in this section (2.2) herein below, i.e. the IC50 values for the inhibition of CDK12 at high ATP.
CDK12/CycK -inhibitory activity of compounds of the present invention at 2 millimol/L adenosine-tri-phosphate (ATP) was quantified employing the TR-FRET (TR-FRET=Time Resolved Fluorescence Energy Transfer) based CDK12/CycK activity inhibition assay as described in the following paragraphs.
A complex of human recombinant CDK12 and human recombinant CycK (both N-terminally His-tagged, expression and purification as described above) was used as enzyme. As substrate for the kinase reaction biotinylated peptide biotin-Ahx-KFELLPTPPLSPSRRSGL (C-terminus in amid form) was used which can be purchased e.g. form the company Biosyntan (Berlin-Buch, Germany).
For the assay 50 nanoL of a 100 fold concentrated solution of the test compound in DMSO was pipetted into either a black low volume 384 well microtiter plate or a black 1536 well microtiter plate (both Greiner Bio-One, Frickenhausen, Germany), 2 microL of a solution of CDK12/CycK in aqueous assay buffer [25 millimol/L HEPES pH 7.5, 20 millimol/L MgCl2, 5 millimol/L β-glycerophosphate, 2 millimol/L EGTA, 1.0 millimol/L dithiothreitol, 0.01% (v/v) Nonidet-P40 (Sigma), 0.01% (w/v) bovine serum albumin] were added and the mixture was incubated for 15 min at 22° C. to allow pre-binding of the test compounds to the enzyme before the start of the kinase reaction. Then the kinase reaction was started by the addition of 3 microL of a solution ATP (3.33 millimol/L=>final conc. in the 5 microL assay volume is 2 millimol/L) and substrate (1.67 micromol/L=>final conc. in the 5 microL assay volume is 1 micromol/L) in assay buffer and the resulting mixture was incubated for a reaction time of 60 min at 22° C. The concentration of CDK12/CycK was adjusted depending of the activity of the enzyme lot and was chosen appropriate to have the assay in the linear range, typical concentrations were about 0.75 nanomol/L. The reaction was stopped by the addition of 3 microL of a solution of TR-FRET detection reagents (125 nanomol/L streptavidine-XL665 [Cisbio Bioassays, Codolet, France] and 0.67 nanomol/L anti-Phospho-c-Myc (Ser 62) (E1J4K)-antibody from Cell Signalling [#13748] and 2 nanomol/L LANCE EU-W1024 labeled anti-rabbit IgG antibody [Perkin-Elmer, product no. 0083]) in an aqueous EDTA-solution (133 millimol/L EDTA, 0.27% (w/v) bovine serum albumin in 66.7 millimol/L HEPES pH 7.5).
The resulting mixture was incubated 1 h at 22° C. to allow the formation of complex between the phosphorylated biotinylated peptide and the detection reagents. Subsequently the amount of phosphorylated substrate was evaluated by measurement of the resonance energy transfer from the Eu-chelate to the streptavidine-XL. Therefore, the fluorescence emissions at 620 nm and 665 nm after excitation at 350 nm was measured in a TR-FRET reader, e.g. a Pherastar FS (BMG Labtechnologies, Offenburg, Germany) or a Viewlux (Perkin-Elmer). The ratio of the emissions at 665 nm and at […] was taken as the measure for the amount of phosphorylated substrate. The data were normalised (enzyme reaction without inhibitor=0% inhibition, all other assay components but no enzyme=100% inhibition).

CYCLIN K = molecular target: T3, CYCLIN K (Homo sapiens, UniProt O75909); assay: CYCLIN K nuclear protein level: immunofluorescence/high content analysis in CAL-120 cells; assay type: cell-based; conditions: 24 h, nuclear CCNK staining intensity, median, read-out: CYCLIN K degradation IF, DC50- [mol/l] (median)
T3 construct: endogenous in cells; host or cells: CAL-120 human breast cancer cells (DSMZ ACC 459)
Protocol: 7. CYCLIN K Nuclear Protein Level: Immunofluorescence/High Content Analysis
In the context of the present invention, the term “DC50 Cyclin K” refers to the DC50 values obtained according to the assay described in this section (7) herein below, i.e. the DC50 values for the degradation of Cyclin K.
as §1, with “CYCLIN K (ThermoFisher Scientific CCNK” for “CDK12 (CellSignalling CDK12”, “# PA5-85020,” for “#11973,”, “1:200” for “1:100”, “CCNK” for “CDK12”

T1 sequence (Q9NYV4 whole entry): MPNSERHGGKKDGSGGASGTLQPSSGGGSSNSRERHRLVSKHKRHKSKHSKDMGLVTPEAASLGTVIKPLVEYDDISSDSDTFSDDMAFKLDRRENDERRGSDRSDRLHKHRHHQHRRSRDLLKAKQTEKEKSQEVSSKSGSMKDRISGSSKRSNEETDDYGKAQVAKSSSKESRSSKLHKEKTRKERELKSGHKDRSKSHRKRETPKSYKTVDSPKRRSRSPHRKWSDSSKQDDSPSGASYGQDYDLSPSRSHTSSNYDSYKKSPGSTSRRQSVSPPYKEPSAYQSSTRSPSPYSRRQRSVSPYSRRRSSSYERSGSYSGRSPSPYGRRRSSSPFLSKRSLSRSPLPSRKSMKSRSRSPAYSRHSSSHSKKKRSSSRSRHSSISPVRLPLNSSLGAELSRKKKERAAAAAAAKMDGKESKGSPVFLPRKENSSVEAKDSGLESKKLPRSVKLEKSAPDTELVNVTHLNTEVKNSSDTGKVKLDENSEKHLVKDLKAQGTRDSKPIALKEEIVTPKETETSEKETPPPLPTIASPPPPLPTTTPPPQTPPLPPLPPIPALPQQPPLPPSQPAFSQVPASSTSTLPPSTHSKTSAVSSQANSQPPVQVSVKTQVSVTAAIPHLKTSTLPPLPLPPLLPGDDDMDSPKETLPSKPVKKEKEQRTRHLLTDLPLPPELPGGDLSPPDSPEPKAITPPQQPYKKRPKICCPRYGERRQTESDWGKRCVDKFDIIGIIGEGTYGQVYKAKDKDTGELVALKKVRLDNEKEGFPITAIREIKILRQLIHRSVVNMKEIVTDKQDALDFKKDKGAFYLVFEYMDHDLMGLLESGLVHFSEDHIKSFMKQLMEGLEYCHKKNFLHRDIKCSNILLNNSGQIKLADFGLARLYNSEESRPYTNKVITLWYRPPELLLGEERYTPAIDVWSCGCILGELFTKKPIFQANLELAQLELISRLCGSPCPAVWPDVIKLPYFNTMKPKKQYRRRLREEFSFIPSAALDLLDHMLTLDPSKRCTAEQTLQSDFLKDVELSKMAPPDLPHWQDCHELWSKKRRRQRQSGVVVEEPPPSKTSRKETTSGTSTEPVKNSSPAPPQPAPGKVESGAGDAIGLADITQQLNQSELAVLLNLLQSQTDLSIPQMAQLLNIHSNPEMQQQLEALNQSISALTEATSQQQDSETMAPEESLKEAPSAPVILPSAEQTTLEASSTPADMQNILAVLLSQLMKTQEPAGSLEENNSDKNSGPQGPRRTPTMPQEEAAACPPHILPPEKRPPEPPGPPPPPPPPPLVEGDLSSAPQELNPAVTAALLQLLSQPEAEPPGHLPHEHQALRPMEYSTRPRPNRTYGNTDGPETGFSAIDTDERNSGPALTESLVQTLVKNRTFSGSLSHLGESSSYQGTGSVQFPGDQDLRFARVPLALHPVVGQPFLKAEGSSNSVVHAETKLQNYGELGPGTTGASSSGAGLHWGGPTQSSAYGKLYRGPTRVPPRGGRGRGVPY
T1 sequence (O75909 whole entry partner): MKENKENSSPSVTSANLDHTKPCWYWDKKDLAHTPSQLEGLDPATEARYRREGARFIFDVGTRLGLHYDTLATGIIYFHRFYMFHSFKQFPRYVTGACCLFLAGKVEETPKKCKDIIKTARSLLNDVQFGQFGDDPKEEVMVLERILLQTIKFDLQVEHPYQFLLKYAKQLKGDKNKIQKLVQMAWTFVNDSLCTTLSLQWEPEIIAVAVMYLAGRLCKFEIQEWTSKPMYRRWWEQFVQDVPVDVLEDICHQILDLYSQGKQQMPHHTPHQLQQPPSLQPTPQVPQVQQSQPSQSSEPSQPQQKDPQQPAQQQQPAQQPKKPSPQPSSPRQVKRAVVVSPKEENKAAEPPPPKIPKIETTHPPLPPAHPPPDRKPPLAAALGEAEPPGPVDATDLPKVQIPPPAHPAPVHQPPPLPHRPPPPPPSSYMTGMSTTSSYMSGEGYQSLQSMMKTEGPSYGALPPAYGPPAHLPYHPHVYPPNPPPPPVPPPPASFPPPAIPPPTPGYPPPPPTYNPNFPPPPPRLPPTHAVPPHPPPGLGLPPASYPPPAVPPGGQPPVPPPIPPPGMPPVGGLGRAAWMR
T2 sequence (Q9NYV4 with tags, fused parts or gaps): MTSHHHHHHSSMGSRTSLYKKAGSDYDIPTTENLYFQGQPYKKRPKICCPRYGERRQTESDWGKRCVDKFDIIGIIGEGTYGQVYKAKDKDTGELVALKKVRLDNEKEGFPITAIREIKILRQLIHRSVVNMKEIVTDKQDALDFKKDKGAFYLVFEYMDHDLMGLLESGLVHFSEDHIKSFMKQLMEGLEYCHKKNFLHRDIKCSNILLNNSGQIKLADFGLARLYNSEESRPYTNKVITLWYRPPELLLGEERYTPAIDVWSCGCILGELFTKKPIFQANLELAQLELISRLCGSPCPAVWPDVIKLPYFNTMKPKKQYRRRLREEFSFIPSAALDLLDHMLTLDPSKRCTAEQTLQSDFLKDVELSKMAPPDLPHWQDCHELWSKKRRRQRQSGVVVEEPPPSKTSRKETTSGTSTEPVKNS
T2 sequence (O75909 with tags, fused parts or gaps partner limits assumed): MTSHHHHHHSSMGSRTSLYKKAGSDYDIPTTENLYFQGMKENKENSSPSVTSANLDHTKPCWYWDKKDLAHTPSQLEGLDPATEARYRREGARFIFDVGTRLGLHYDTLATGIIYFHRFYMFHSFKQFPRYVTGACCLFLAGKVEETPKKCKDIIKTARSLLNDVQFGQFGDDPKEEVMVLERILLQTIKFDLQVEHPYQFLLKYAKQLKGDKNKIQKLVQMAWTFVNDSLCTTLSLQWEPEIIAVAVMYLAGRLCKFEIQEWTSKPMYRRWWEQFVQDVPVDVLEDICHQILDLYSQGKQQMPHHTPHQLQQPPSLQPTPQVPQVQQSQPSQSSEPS
T3 sequence (O75909 whole entry): as the sequence (O75909 whole entry partner) above
T3 sequence (Q9NYV4 whole entry partner): as the sequence (Q9NYV4 whole entry) above

DC50 (CDK12; CAL-120 cells, 24 h, nuclear CDK12 staining intensity, median, read-out: CDK12 degradation IF DC50 - [mol/l] (median)): 83.4 nM | (IC50 CDK12 high ATP) to (Degradation DC50 CDK12) ratio (CDK12; ratio of IC50 CDK12 hATP (2 mM ATP) to DC50 CDK12 (IF, CAL-120)): >239 | IC50 (CDK12/CyclinK): > 20000 nM | DC50 (CYCLIN K): 3.46 nM
SMILES: CN1CCC(n2nc(NCc3nc4c(OC(F)(F)F)cccc4[nH]3)c3ncc(C4CC4)nc32)CC1 [Example 5, 6-cyclopropyl-1-(1-methylpiperidin-4-yl)-N-{[4-(trifluoromethoxy)-1H-benzimidazol-2-yl]methyl}-1H-pyrazolo[3,4-b]pyrazin-3-amine]
